Experimental data: the NIST ThermoML archive (doi:10.1016/j.jct.2017.07.024)

Assays:
[1] = refractive index (Na D-line) (dimensionless); wn = mass fraction of the nth substance listed; settings: 100 kPa, Liquid, Standard Abbe refractometry
[2] = wn = mass fraction of the nth substance listed; settings: for surface tension liquid-gas: Maximal bubble pressure; for mass density: 100 kPa, Liquid, Vibrating tube method

CCCCCn1cc[n+](C)c1.C[C@@H](O)[C@H](N)C(=O)[O-] [1-pentyl-3-methylimidazolium DL-threoninate] + O
Settings	mass density, [2] [kg/m3]	refractive index, [1]	surface tension liquid-gas, [2] [mN/m]
288.15 K, w2 = 0.0066	1107.18	1.5071	38.8
288.15 K, w2 = 0.0097	1106.95	1.5067	39
288.15 K, w2 = 0.0119	1106.76	1.5064	39.2
288.15 K, w2 = 0.0141	1106.59	1.5061	39.4
288.15 K, w2 = 0.0165	1106.41	1.5058	39.6
293.15 K, w2 = 0.0066	1103.87	1.5056	38.4
293.15 K, w2 = 0.0097	1103.64	1.5053	38.6
293.15 K, w2 = 0.0119	1103.45	1.505	38.8
293.15 K, w2 = 0.0141	1103.28	1.5047	39
293.15 K, w2 = 0.0165	1103.1	1.5044	39.2
298.15 K, w2 = 0.0066	1100.56	1.504	38.2
298.15 K, w2 = 0.0097	1100.33	1.5037	38.4
298.15 K, w2 = 0.0119	1100.14	1.5034	38.6
298.15 K, w2 = 0.0141	1099.97	1.5032	38.8
298.15 K, w2 = 0.0165	1099.79	1.5028	39
303.15 K, w2 = 0.0066	1097.21	1.5024	37.8
303.15 K, w2 = 0.0097	1096.98	1.5021	38.1
303.15 K, w2 = 0.0119	1096.79	1.5017	38.3
303.15 K, w2 = 0.0141	1096.61	1.5015	38.5
303.15 K, w2 = 0.0165	1096.42	1.5012	38.7
308.15 K, w2 = 0.0066	1093.89	1.5009	37.5
308.15 K, w2 = 0.0097	1093.66	1.5006	37.8
308.15 K, w2 = 0.0119	1093.46	1.5003	38
308.15 K, w2 = 0.0141	1093.29	1.5	38.2
308.15 K, w2 = 0.0165	1093.09	1.4997	38.4
313.15 K, w2 = 0.0066	1090.6	1.4992	37.2
313.15 K, w2 = 0.0097	1090.36	1.4988	37.5
313.15 K, w2 = 0.0119	1090.16	1.4984	37.7
313.15 K, w2 = 0.0141	1089.98	1.4982	37.9
313.15 K, w2 = 0.0165	1089.78	1.4978	38.1
318.15 K, w2 = 0.0066	1087.14	1.4977	36.9
318.15 K, w2 = 0.0097	1086.89	1.4974	37.2
318.15 K, w2 = 0.0119	1086.69	1.497	37.4
318.15 K, w2 = 0.0141	1086.51	1.4967	37.6
318.15 K, w2 = 0.0165	1086.31	1.4963	37.9
323.15 K, w2 = 0.0066	1083.97	1.4961	36.6
323.15 K, w2 = 0.0097	1083.72	1.4957	36.9
323.15 K, w2 = 0.0119	1083.51	1.4954	37.1
323.15 K, w2 = 0.0141	1083.32	1.4951	37.3
323.15 K, w2 = 0.0165	1083.11	1.4947	37.6
328.15 K, w2 = 0.0066	1080.67	1.4945	36.3
328.15 K, w2 = 0.0097	1080.42	1.4941	36.6
328.15 K, w2 = 0.0119	1080.21	1.4937	36.8
328.15 K, w2 = 0.0141	1080.02	1.4934	37
328.15 K, w2 = 0.0165	1079.81	1.4931	37.3

CCCCCCn1cc[n+](C)c1.C[C@@H](O)[C@H](N)C(=O)[O-] [1-hexyl-3-methylimidazolium DL-threoninate] + O
Settings	mass density, [2] [kg/m3]	refractive index, [1]	surface tension liquid-gas, [2] [mN/m]
288.15 K, w2 = 0.006	1089.58	1.5042	37.4
288.15 K, w2 = 0.0091	1089.35	1.5038	37.6
288.15 K, w2 = 0.012	1089.16	1.5034	37.8
288.15 K, w2 = 0.0149	1088.99	1.5031	38
288.15 K, w2 = 0.0172	1088.81	1.5028	38.2
293.15 K, w2 = 0.006	1086.27	1.5026	37
293.15 K, w2 = 0.0091	1086.04	1.5023	37.2
293.15 K, w2 = 0.012	1085.85	1.502	37.4
293.15 K, w2 = 0.0149	1085.68	1.5017	37.6
293.15 K, w2 = 0.0172	1085.5	1.5014	37.8
298.15 K, w2 = 0.006	1082.96	1.5012	36.7
298.15 K, w2 = 0.0091	1082.73	1.5009	36.9
298.15 K, w2 = 0.012	1082.54	1.5006	37.1
298.15 K, w2 = 0.0149	1082.37	1.5003	37.3
298.15 K, w2 = 0.0172	1082.19	1.5	37.5
303.15 K, w2 = 0.006	1079.61	1.4994	36.4
303.15 K, w2 = 0.0091	1079.38	1.4991	36.7
303.15 K, w2 = 0.012	1079.19	1.4988	36.9
303.15 K, w2 = 0.0149	1079.01	1.4985	37.1
303.15 K, w2 = 0.0172	1078.82	1.4982	37.3
308.15 K, w2 = 0.006	1076.29	1.4981	36.1
308.15 K, w2 = 0.0091	1076.06	1.4978	36.4
308.15 K, w2 = 0.012	1075.86	1.4974	36.6
308.15 K, w2 = 0.0149	1075.69	1.4971	36.8
308.15 K, w2 = 0.0172	1075.49	1.4968	37
313.15 K, w2 = 0.006	1073	1.4964	35.8
313.15 K, w2 = 0.0091	1072.76	1.4961	36.1
313.15 K, w2 = 0.012	1072.56	1.4958	36.3
313.15 K, w2 = 0.0149	1072.38	1.4955	36.5
313.15 K, w2 = 0.0172	1072.18	1.4952	36.7
318.15 K, w2 = 0.006	1069.54	1.495	35.5
318.15 K, w2 = 0.0091	1069.29	1.4947	35.8
318.15 K, w2 = 0.012	1069.09	1.4944	36
318.15 K, w2 = 0.0149	1068.91	1.4941	36.3
318.15 K, w2 = 0.0172	1068.71	1.4938	36.5
323.15 K, w2 = 0.006	1066.37	1.4933	35.2
323.15 K, w2 = 0.0091	1066.12	1.4929	35.5
323.15 K, w2 = 0.012	1065.91	1.4926	35.7
323.15 K, w2 = 0.0149	1065.72	1.4922	36
323.15 K, w2 = 0.0172	1065.51	1.4919	36.2
328.15 K, w2 = 0.006	1063.07	1.4918	34.9
328.15 K, w2 = 0.0091	1062.82	1.4914	35.2
328.15 K, w2 = 0.012	1062.61	1.4911	35.4
328.15 K, w2 = 0.0149	1062.42	1.4907	35.7
328.15 K, w2 = 0.0172	1062.21	1.4904	35.9

CCCn1cc[n+](C)c1.C[C@@H](O)[C@H](N)C(=O)[O-] [1-propyl-3-methylimidazolium DL-threoninate] + O
Settings	mass density, [2] [kg/m3]	refractive index, [1]	surface tension liquid-gas, [2] [mN/m]
288.15 K, w2 = 0.0065	1150.46	1.5132	42
288.15 K, w2 = 0.0092	1150.15	1.5127	42.2
288.15 K, w2 = 0.0116	1149.81	1.5121	42.4
288.15 K, w2 = 0.0135	1149.56	1.5117	42.6
288.15 K, w2 = 0.0161	1149.22	1.5111	42.8
293.15 K, w2 = 0.0065	1147.75	1.5116	41.7
293.15 K, w2 = 0.0092	1147.33	1.5111	41.9
293.15 K, w2 = 0.0116	1146.94	1.5105	42.1
293.15 K, w2 = 0.0135	1146.61	1.5101	42.3
293.15 K, w2 = 0.0161	1146.22	1.5095	42.5
298.15 K, w2 = 0.0065	1143.37	1.5101	41.3
298.15 K, w2 = 0.0092	1142.89	1.5096	41.6
298.15 K, w2 = 0.0116	1142.43	1.509	41.8
298.15 K, w2 = 0.0135	1142.12	1.5086	42
298.15 K, w2 = 0.0161	1141.66	1.508	42.2
303.15 K, w2 = 0.0065	1139.97	1.5088	41
303.15 K, w2 = 0.0092	1139.49	1.5082	41.3
303.15 K, w2 = 0.0116	1139.07	1.5077	41.5
303.15 K, w2 = 0.0135	1138.7	1.5073	41.7
303.15 K, w2 = 0.0161	1138.27	1.5068	41.9
308.15 K, w2 = 0.0065	1136.59	1.5074	40.7
308.15 K, w2 = 0.0092	1136.11	1.5069	41
308.15 K, w2 = 0.0116	1135.68	1.5064	41.2
308.15 K, w2 = 0.0135	1135.31	1.5061	41.4
308.15 K, w2 = 0.0161	1134.87	1.5056	41.6
313.15 K, w2 = 0.0065	1133.16	1.506	40.4
313.15 K, w2 = 0.0092	1132.71	1.5055	40.7
313.15 K, w2 = 0.0116	1132.22	1.5052	40.9
313.15 K, w2 = 0.0135	1131.88	1.5048	41.1
313.15 K, w2 = 0.0161	1131.4	1.5044	41.3
318.15 K, w2 = 0.0065	1129.72	1.5044	40.1
318.15 K, w2 = 0.0092	1129.19	1.504	40.4
318.15 K, w2 = 0.0116	1128.78	1.5036	40.6
318.15 K, w2 = 0.0135	1128.43	1.5033	40.8
318.15 K, w2 = 0.0161	1127.95	1.5028	41.1
323.15 K, w2 = 0.0065	1126.27	1.5029	39.8
323.15 K, w2 = 0.0092	1125.8	1.5024	40.1
323.15 K, w2 = 0.0116	1125.32	1.5021	40.4
323.15 K, w2 = 0.0135	1124.96	1.5018	40.6
323.15 K, w2 = 0.0161	1124.48	1.5013	40.9
328.15 K, w2 = 0.0065	1122.82	1.5015	39.5
328.15 K, w2 = 0.0092	1122.34	1.5011	39.8
328.15 K, w2 = 0.0116	1121.86	1.5007	40.1
328.15 K, w2 = 0.0135	1121.5	1.5004	40.4
328.15 K, w2 = 0.0161	1121	1.4999	40.7
